What all share (assay): 3' UTR reporter interaction score (median-centred robust z-score of log2 firefly/Renilla activity); higher = less repression of the 3' UTR reporter
Holding throughout (conditions): HEK293T; 48 h

The subject of one data set is MYB. A digest of the protocol: (§1)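 For the interaction score, the firefly/Renilla ratio was log-transformed, expressed as a robust z-score per plate using median and median absolute deviation, and median-centred per miRNA; a more negative score indicates interaction. These scores come from at least two independent screens, averaged. Each screen used HEK293T cells at 10,000/well in 96-well plates, co-transfected with DharmaFECT Duo carrying 100 ng luc2P 3' UTR reporter, 20 ng pRL-TK and 2.5 pmol miRNA mimic, with luciferase read at 48 h.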

Another data set deals with NOTCH1. In a few lines: as §1
The subject of another data set is HRAS. In a few lines:
as §1

A further data set relates to BRCA2. A digest of the protocol:
as §1

A further data set concerns PHOX2B. In a few lines: as §1
For another data set, the system named is MYC. In a few lines: as §1
In the next data set the test system is FBXW7. A digest of the protocol: as §1
For another data set, the system named is MYT1L. In a few lines: as §1
The next data set relates to PHF6. In a few lines: as §1
The subject of a further data set is MYCN. A digest of the protocol:
as §1

A further data set deals with EZH2. In a few lines: as §1
The next data set deals with TP53. A digest of the protocol: as §1
For the next data set, the system named is ZEB2. In a few lines:
as §1

The subject of a further data set is RB1. In a few lines:
as §1

Regarding CAAAGCGCUCCCCUUUAGAGGU, the “3' UTR reporter interaction score” value in the data set on MYB was -0.147; with NOTCH1 it was -0.101; in the data set on HRAS it was 1.33; with BRCA2, -0.715; in the data set on PHOX2B, 0.264; in the data set on MYC, 0.756. Also, the “3' UTR reporter interaction score” value with FBXW7 is -0.27; with MYT1L, -0.44; in the data set on PHF6, 1.12; with MYCN, -0.228; with EZH2, 0.467; in the data set on TP53, -0.173. The “3' UTR reporter interaction score” value in the data set on ZEB2 was 1.31; in the data set on RB1 it was -1.27.

Consider CAAAGCGCUUCCCUUUGGAGC, for which the “3' UTR reporter interaction score” value with MYB was -0.305; in the data set on NOTCH1 it was 0.413; in the data set on HRAS, 0.795; with BRCA2 it was -0.805; in the data set with PHOX2B, 0.957; in the data set with MYC, -0.581. Further, the “3' UTR reporter interaction score” value in the data set with FBXW7 is 0.503; in the data set with MYT1L, -0.495; with PHF6, 0.27; in the data set on MYCN, 0.103; with EZH2, 0.322; in the data set on TP53 it was -0.385. Moreover, the “3' UTR reporter interaction score” value with ZEB2 was 0.353; with RB1, -0.468.

For CAAAGCGCUUCUCUUUAGAGUG, the “3' UTR reporter interaction score” value with MYB is -0.443; in the data set with NOTCH1 it was 0.203; in the data set with HRAS, 0.465; with BRCA2 it was 0.562; with PHOX2B, -1.15; in the data set with MYC, 1.05. The “3' UTR reporter interaction score” value in the data set on FBXW7 is -1.3; with MYT1L it was -0.533; in the data set with PHF6, 1.07; with MYCN, -0.402; in the data set with EZH2, 0.725; with TP53, 0.068. The “3' UTR reporter interaction score” value in the data set on ZEB2 was -0.101; in the data set on RB1 it was -4.99e-18.

As to CAAAGUGCCUCCCUUUAGAGUGU, the “3' UTR reporter interaction score” value in the data set with MYB was 0.155; in the data set on NOTCH1 it was 0.00359; in the data set with HRAS it was 0.317; with BRCA2, 0.407; with PHOX2B, 0.0452; in the data set on MYC, -0.351. Moreover, the “3' UTR reporter interaction score” value was 0.81 in the data set with FBXW7; -0.343 in the data set on MYT1L; 0.15 in the data set with PHF6; 0.839 in the data set on MYCN; -0.27 in the data set on EZH2; 0.418 in the data set on TP53. Further, the figures for the “3' UTR reporter interaction score” value in the data set with ZEB2 and with RB1 were -0.0865 and -0.937, respectively.

Consider CAAAGUGCUCAUAGUGCAGGUAG, for which the “3' UTR reporter interaction score” value in the data set on MYB is -1.73; in the data set with NOTCH1, 1.52; in the data set on HRAS it was 0.757; with BRCA2, 0.253; in the data set on PHOX2B, 1.67; in the data set on MYC it was -0.364. The “3' UTR reporter interaction score” value was 1 in the data set with FBXW7; -1.37 in the data set on MYT1L; 0.651 in the data set with PHF6; -0.62 with MYCN; -0.533 in the data set with EZH2; 0.0738 with TP53. The “3' UTR reporter interaction score” value with ZEB2 was found to be 1.98; with RB1, 0.42.

As to CAAAGUUUAAGAUCCUUGAAGU, the “3' UTR reporter interaction score” value is 0.577 in the data set on MYB; -0.31 in the data set with NOTCH1; 0.215 in the data set on HRAS; 0.573 in the data set with BRCA2; -2.34 in the data set with PHOX2B; -0.333 with MYC. Besides, the “3' UTR reporter interaction score” value in the data set with FBXW7 is -0.767; with MYT1L it was 0.732; with PHF6 it was 0.33; with MYCN, -0.796; in the data set with EZH2, 0.55; in the data set on TP53, -0.363. Besides, the “3' UTR reporter interaction score” value was -0.576 with ZEB2 and 0.395 with RB1.

As to CAACCUGGAGGACUCCAUGCUG, the “3' UTR reporter interaction score” value was 1.15 with MYB; -0.127 in the data set with NOTCH1; 0.685 in the data set on HRAS; 0.635 in the data set with BRCA2; -0.796 in the data set on PHOX2B; 0.486 with MYC. In addition, the “3' UTR reporter interaction score” value in the data set with FBXW7 was 0.0371; in the data set with MYT1L, 0.329; in the data set with PHF6, -0.934; with MYCN, 0.831; in the data set on EZH2, 0.157; in the data set with TP53, 0.0572. The “3' UTR reporter interaction score” value in the data set on ZEB2 is 0.335; in the data set with RB1, -2.92.

Consider CAACGGAAUCCCAAAAGCAGCU, for which the “3' UTR reporter interaction score” value is -0.0583 with MYB; 0.629 with NOTCH1; 0.275 with HRAS; -0.135 with BRCA2; -0.397 in the data set on PHOX2B; 0.282 in the data set on MYC. For the same sequence, the “3' UTR reporter interaction score” value with FBXW7 was -0.229; in the data set with MYT1L, -1.32; in the data set with PHF6, -0.143; in the data set with MYCN, -0.12; in the data set with EZH2, 0.561; in the data set on TP53, -0.924. The “3' UTR reporter interaction score” value was 0.375 in the data set on ZEB2 and 0.747 in the data set with RB1.

For the sequence CAAGUCACUAGUGGUUCCGUUUA, the “3' UTR reporter interaction score” value is -0.363 with MYB; 1.15 in the data set with NOTCH1; -1.48 in the data set on HRAS; 0.252 in the data set on BRCA2; 0.0612 in the data set with PHOX2B; -1.07 in the data set with MYC. The “3' UTR reporter interaction score” value with FBXW7 is 1.35; with MYT1L, -1.25; in the data set with PHF6, -0.71; in the data set on MYCN, -0.0757; with EZH2 it was 0.168; in the data set with TP53, -0.393. In addition, the figures for the “3' UTR reporter interaction score” value in the data set with ZEB2 and in the data set with RB1 were 1.99 and 1.58, respectively.

Values taken from the supplement of paper PMC5844555.
